{
  "source": "patent US11384381B2",
  "about": "“Reaction accelerating agent” (Kikkoman Corporation, priority 2016, dated 2022)",
  "key": {"[1]": {"system": "sarcosine oxidase (SOD-TE)", "test": "Acceleration of sarcosine detection reaction with small amount of sarcosine oxidase (Example 11)", "format": "biochemical", "settings": "0.04% (w/v) compound, 12.3 U/ml SOD-TE; for effect of accelerating sarcosine detection reaction: versus not added; for Degree of progression of reaction (%) after 7.5 minutes / Degree of progression of reaction (%) after 10 minutes: sarcosine detection reaction, ΔA/ΔA100%; for Degree of progression of reaction (%) after 7.5 minutes: 2.5 minutes after addition of second reagent, not added: 60; for Degree of progression of reaction (%) after 10 minutes: 5 minutes after addition of second reagent, not added: 82", "method": "Next, in this Example, the degree of acceleration of sarcosine detection reaction by the compound of the present invention was determined using a small amount of sarcosine oxidase.\nA reagent for sarcosine measurement having the following composition was prepared, and the measurement of sarcosine was carried out using Bio Majesty JCA-BM1650 (manufactured by JEOL Ltd.).\n32 μM sarcosine (manufactured by Wako Pure Chemical Industries, Ltd.)\n30 mM MOPS-NaOH buffer solution, pH 8.0\n0.2% (v/v) NP-10 (manufactured by HELM)\n(§1) 10 U/ml peroxidase PEO-301 (Toyobo Co., Ltd.)\n0.023 mM 10-(carboxymethylaminocarbonyl)-3,7-bis(dimethylamino)phenothiazine sodium\n(DA-67, manufactured by Wako Pure Chemical Industries, Ltd.)\n0.04% (w/v) of the compound of Comparative Example 2, any one compound of the present invention, or compound-free (Comparative Example 1) ion-exchange water as shown in Table 1\n10 mM MOPS-NaOH buffer solution, pH 8.0\n12.3 U/ml SOD-TE (manufactured by Kikkoman Biochemifa Company)\n8 μl of the sample was added to […] of the first reagent-D, and the mixture was incubated at 37° C. for 5 minutes. Then, 24 μl of the second reagent-H was added thereto, and the quantitative reaction of hydrogen peroxide resulting from the oxidation of sarcosine was allowed to progress at 37° C. for 5 minutes. The absorbance (A694 and A751) of the reaction solution for light at wavelengths of 694 nm and 751 nm was measured over time for 10 minutes after the mixing of the sample with the first reagent-D to determine the value of subtraction of A751 from A694, i.e., the value A694/751. Subsequently, ΔA was calculated by subtracting, from A694/751, the value of (104/128) times A694/751 4.8 minutes after the mixing of the sample with the first reagent-D. Incidentally, 5 minutes after the mixing of the sample with the first reagent-D represents the time immediately before the addition of the second reagent-H.\nNext, ΔA calculated in this Example was divided by ΔA100% defined in Example 10 to calculate the degree of progression of sarcosine detection reaction. The degree of progression of sarcosine detection reaction 7.5 and 10 minutes after the mixing of the sample with the first reagent-D (in other words, 2.5 and 5 minutes after the addition of the second reagent-H) is shown in Table 8."}, "CFP-DH4 (A1cOX)": {"system": "CFP-DH4 (A1cOX)", "test": "HbA1c detection reaction completed with excess A1cOX (Example 4)", "format": "biochemical", "settings": "0.04% (w/v) compound, 5.3 mg/ml CFP-DH4 (excess), blood cells 10.4% HbA1c, pH 6.5, 37° C.; for ΔA9 min: change in A694-A751 9 minutes after mixing sample with first reagent; for ΔA10 min: change in A694-A751 10 minutes after mixing sample with first reagent, defined as ΔA100%", "method": "In this Example, the amount of change in absorbance when an excess amount of A1cOX is used and HbA1c detection reaction was completed is determined.\nA reagent for HbA1c measurement having the following composition was prepared, and the measurement of HbA1c was carried out using Bio Majesty JCA-BMI650 (manufactured by JEOL Ltd.).\nBlood cells (10.4% HbA1c (NGSP value))\n30 mM MOPS-NaOH buffer solution, pH 6.5\n0.2% (w/v) n-dodecyl-β-D-maltoside (manufactured by Dojindo Laboratories)\nas §1\n0.023 mM 10-(carboxymethylaminocarbonyl)-3,7-bis(dimethylamino)phenothiazine sodium (DA-67, manufactured by Wako Pure Chemical Industries, Ltd.)\n0.04% (w/v) of the compound of Comparative Example 2 (Wako Pure Chemical Industries, Ltd.), any one compound of the present invention (all from Tokyo Chemical Industry Co., Ltd. except for Acid Yellow 34 from MP Biomedicals, LLC), or compound-free (Comparative Example 1) ion-exchange water as shown in Table 1 (Second Reagent-A) 10 mM MOPS-NaOH buffer solution, pH 6.5 5.3 mg/ml CFP-DH4 (A cOX)\n8 μl of the sample diluted 51-fold with ion-exchange water was added to 96 μl of the first reagent-A, and the mixture was incubated at 37° C. for 5 minutes. Then, 24 μl of the second reagent-A was added thereto, and the quantitative reaction of hydrogen peroxide resulting from the oxidation of the β-chain amino terminus of HbA1c was allowed to progress at 37° C. for 5 minutes. The absorbance (A694 and A751) of the reaction solution for light at wavelengths of 694 nm and 751 nm was measured over time for 10 minutes after the mixing of the diluted sample with the first reagent-A to determine the value subtracting of A751 from A694, i.e., the value A694/751. Subsequently, ΔA was calculated by subtracting, from A694/751, the value of (104/128) times A694/751 4.8 minutes after mixing the diluted sample with the first reagent-A. Incidentally, 4.8 minutes after the mixing of the diluted sample with the first reagent-A represents the time immediately before the addition of the second reagent-A. ΔA 9 minutes and 10 minutes after the mixing of the diluted sample with the first reagent (ΔA9min and ΔA10min) are shown in Table 1.\nIn other words, it can be recognized that the quantitative reaction of HbA1c, i.e., the quantitative reaction of hydrogen peroxide resulting from the oxidation of HbA1c, was completed in 10 minutes after the mixing of the diluted sample with the first reagent-A. Accordingly, in Examples 4 and 5, ΔA10min in each Comparative Example or the present invention was defined as ΔA when 100% of the quantitative reaction of HbA1c progressed under each condition (ΔA100%)."}},
  "data": [
    {"compound": "COc1cc(N=Nc2cccc(S(=O)(=O)[O-])c2)ccc1NC(=O)Nc1ccc(N=Nc2ccc(O)c(C(=O)[O-])c2)cc1.[Na+].[Na+]", "note": "[Direct Yellow 44]", "values": [
      {"measurement": "effect of accelerating sarcosine detection reaction", "setting": "[1]", "result": "effect of accelerating sarcosine detection reaction"},
      {"measurement": "Degree of progression of reaction (%) after 7.5 minutes", "setting": "[1]", "result": 68, "unit": "%"},
      {"measurement": "Degree of progression of reaction (%) after 10 minutes", "setting": "[1]", "result": 89, "unit": "%"},
      {"measurement": "ΔA9 min", "setting": "CFP-DH4 (A1cOX)", "result": 0.017},
      {"measurement": "ΔA10 min", "setting": "CFP-DH4 (A1cOX)", "result": 0.017}
    ]},
    {"compound": "COc1cc(N=Nc2ccc(N)cc2)c(C)cc1N", "note": "[Disperse Diazo Black 3BF]", "values": [
      {"measurement": "effect of accelerating sarcosine detection reaction", "setting": "[1]", "result": "effect of accelerating sarcosine detection reaction"},
      {"measurement": "Degree of progression of reaction (%) after 7.5 minutes", "setting": "[1]", "result": 63, "unit": "%"},
      {"measurement": "Degree of progression of reaction (%) after 10 minutes", "setting": "[1]", "result": 84, "unit": "%"}
    ]},
    {"compound": "Xylene Fast Yellow 2G", "values": [
      {"measurement": "effect of accelerating sarcosine detection reaction", "setting": "[1]", "result": "effect of accelerating sarcosine detection reaction"},
      {"measurement": "Degree of progression of reaction (%) after 7.5 minutes", "setting": "[1]", "result": 64, "unit": "%"},
      {"measurement": "Degree of progression of reaction (%) after 10 minutes", "setting": "[1]", "result": 86, "unit": "%"},
      {"measurement": "ΔA9 min", "setting": "CFP-DH4 (A1cOX)", "result": 0.015},
      {"measurement": "ΔA10 min", "setting": "CFP-DH4 (A1cOX)", "result": 0.015}
    ]},
    {"compound": "O=C([O-])c1cc(N=Nc2cccc([N+](=O)[O-])c2)ccc1O.[Na+]", "note": "[Alizarin Yellow GG]", "values": [
      {"measurement": "effect of accelerating sarcosine detection reaction", "setting": "[1]", "result": "effect of accelerating sarcosine detection reaction"},
      {"measurement": "Degree of progression of reaction (%) after 7.5 minutes", "setting": "[1]", "result": 64, "unit": "%"},
      {"measurement": "Degree of progression of reaction (%) after 10 minutes", "setting": "[1]", "result": 86, "unit": "%"},
      {"measurement": "ΔA9 min", "setting": "CFP-DH4 (A1cOX)", "result": 0.016},
      {"measurement": "ΔA10 min", "setting": "CFP-DH4 (A1cOX)", "result": 0.016}
    ]},
    {"compound": "O=C(O)c1cc(N=Nc2ccc3cc(S(=O)(=O)O)ccc3c2)ccc1O.[Na]", "note": "[Chrome Yellow]", "values": [
      {"measurement": "effect of accelerating sarcosine detection reaction", "setting": "[1]", "result": "effect of accelerating sarcosine detection reaction"},
      {"measurement": "Degree of progression of reaction (%) after 7.5 minutes", "setting": "[1]", "result": 65, "unit": "%"},
      {"measurement": "Degree of progression of reaction (%) after 10 minutes", "setting": "[1]", "result": 87, "unit": "%"},
      {"measurement": "ΔA9 min", "setting": "CFP-DH4 (A1cOX)", "result": 0.024},
      {"measurement": "ΔA10 min", "setting": "CFP-DH4 (A1cOX)", "result": 0.024}
    ]},
    {"compound": "Acid Red 151", "values": [
      {"measurement": "effect of accelerating sarcosine detection reaction", "setting": "[1]", "result": "effect of accelerating sarcosine detection reaction"},
      {"measurement": "Degree of progression of reaction (%) after 7.5 minutes", "setting": "[1]", "result": 68, "unit": "%"},
      {"measurement": "Degree of progression of reaction (%) after 10 minutes", "setting": "[1]", "result": 89, "unit": "%"},
      {"measurement": "ΔA9 min", "setting": "CFP-DH4 (A1cOX)", "result": 0.014},
      {"measurement": "ΔA10 min", "setting": "CFP-DH4 (A1cOX)", "result": 0.014}
    ]},
    {"compound": "O=C([O-])c1cc(N=Nc2ccc([N+](=O)[O-])cc2)ccc1O.[Na+]", "note": "[Mordant Orange 1]", "values": [
      {"measurement": "effect of accelerating sarcosine detection reaction", "setting": "[1]", "result": "effect of accelerating sarcosine detection reaction"},
      {"measurement": "Degree of progression of reaction (%) after 7.5 minutes", "setting": "[1]", "result": 67, "unit": "%"},
      {"measurement": "Degree of progression of reaction (%) after 10 minutes", "setting": "[1]", "result": 88, "unit": "%"},
      {"measurement": "ΔA9 min", "setting": "CFP-DH4 (A1cOX)", "result": 0.016},
      {"measurement": "ΔA10 min", "setting": "CFP-DH4 (A1cOX)", "result": 0.016}
    ]},
    {"compound": "O=S(=O)([O-])c1cccc(N=Nc2ccc(Nc3ccccc3)cc2)c1.[Na+]", "note": "[Acid Yellow 36]", "values": [
      {"measurement": "ΔA9 min", "setting": "CFP-DH4 (A1cOX)", "result": 0.011},
      {"measurement": "ΔA10 min", "setting": "CFP-DH4 (A1cOX)", "result": 0.011}
    ]},
    {"compound": "Cc1nn(-c2cc(S(=O)(=O)[O-])ccc2Cl)c(O)c1N=Nc1ccccc1.[Na+]", "note": "[Acid Yellow 34]", "values": [
      {"measurement": "ΔA9 min", "setting": "CFP-DH4 (A1cOX)", "result": 0.011},
      {"measurement": "ΔA10 min", "setting": "CFP-DH4 (A1cOX)", "result": 0.011}
    ]}
  ]
}
